As a reminder, the IC50 is the midpoint of a concentration-inhibition curve.

Where two headings read alike, the source gives them in different places.

Among the data in patent US10898481B2 (priority 2018, dated 2021) are IC50 values, retold here.

Test [1] addresses hADORA1/CHO (hA1 expressing) cells (Homo sapiens (Human), UniProt P30542). The test is described as follows: cell-based. As to conditions: 10 μM adenosine.
The next test concerns the target mA2a/CHO (Mus musculus (Mouse), UniProt Q60613). As to the kind of experiment: cAMP inhibition assay in mA2a/CHO cells, 10 μM adenosine.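 Also: compounds preincubated 30 min at 37 °C before the adenosine challenge, then 30 min further stimulation, readout after 60 min detection reagent incubation at room temperature in 384-well plates.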 The class given is cell-based.
The next test has as its target hA2b/CHO (Homo sapiens (Human), UniProt P29275). The test is described as follows: cAMP inhibition assay in hA2b/CHO cells, 10 μM adenosine.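 Also: cells exposed to compound 30 min at 37 °C, then stimulated with adenosine a further 30 min, cAMP read after 60 min at room temperature.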 The format is cell-based.
A further test concerns the target hA2a/CHO (Homo sapiens (Human), UniProt P29274). The test is described as follows: cAMP inhibition assay in hA2a/CHO cells, 10 μM adenosine.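 Also: compounds added to cells 30 min ahead of adenosine, then a further 30 min at 37 °C with adenosine before cAMP detection.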 The class given is cell-based.
Setting [2] is: FLIPR inhibition, read-out: cAMP & FLIPR IC50 (nM) hA1.
Where [3] appears, read: read-out: cAMP & FLIPR IC50 (nM) mA2a.
Setting [4] is: read-out: cAMP & FLIPR IC50 (nM) hA2b.
Where [5] appears, read: read-out: cAMP & FLIPR IC50 (nM) hA2a.

Chain of hADORA1/CHO (hA1 expressing) cells (P30542 whole entry): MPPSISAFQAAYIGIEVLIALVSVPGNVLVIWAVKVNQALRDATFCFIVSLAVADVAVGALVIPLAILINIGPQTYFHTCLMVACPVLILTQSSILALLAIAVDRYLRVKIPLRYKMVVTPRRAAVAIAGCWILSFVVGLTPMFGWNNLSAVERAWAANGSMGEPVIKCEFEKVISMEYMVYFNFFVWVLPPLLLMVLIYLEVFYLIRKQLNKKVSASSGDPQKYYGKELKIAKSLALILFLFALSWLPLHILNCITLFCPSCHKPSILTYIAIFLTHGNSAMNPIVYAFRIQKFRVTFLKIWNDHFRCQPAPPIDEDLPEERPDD
Chain of hA2b/CHO (P29275 whole entry): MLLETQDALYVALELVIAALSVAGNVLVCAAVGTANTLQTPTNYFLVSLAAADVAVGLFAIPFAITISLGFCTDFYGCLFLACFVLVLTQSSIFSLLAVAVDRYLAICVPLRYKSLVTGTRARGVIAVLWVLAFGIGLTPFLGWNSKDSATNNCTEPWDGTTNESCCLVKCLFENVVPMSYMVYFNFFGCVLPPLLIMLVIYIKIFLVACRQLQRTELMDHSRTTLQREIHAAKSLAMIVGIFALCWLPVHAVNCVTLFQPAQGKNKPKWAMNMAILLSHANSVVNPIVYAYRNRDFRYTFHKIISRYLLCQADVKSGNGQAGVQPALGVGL
Chain of mA2a/CHO (Q60613 whole entry): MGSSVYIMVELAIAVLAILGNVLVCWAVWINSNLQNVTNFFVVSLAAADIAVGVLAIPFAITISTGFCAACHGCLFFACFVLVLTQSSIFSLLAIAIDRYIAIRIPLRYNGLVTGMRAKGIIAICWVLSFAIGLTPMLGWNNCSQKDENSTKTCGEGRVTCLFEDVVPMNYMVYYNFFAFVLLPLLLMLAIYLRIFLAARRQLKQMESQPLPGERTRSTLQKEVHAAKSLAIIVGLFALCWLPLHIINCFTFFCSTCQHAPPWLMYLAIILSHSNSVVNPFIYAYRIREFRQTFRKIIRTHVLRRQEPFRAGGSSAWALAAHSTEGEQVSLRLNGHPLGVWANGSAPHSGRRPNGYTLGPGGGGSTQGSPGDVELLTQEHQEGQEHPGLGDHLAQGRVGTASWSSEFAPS
Chain of hA2a/CHO (P29274 whole entry): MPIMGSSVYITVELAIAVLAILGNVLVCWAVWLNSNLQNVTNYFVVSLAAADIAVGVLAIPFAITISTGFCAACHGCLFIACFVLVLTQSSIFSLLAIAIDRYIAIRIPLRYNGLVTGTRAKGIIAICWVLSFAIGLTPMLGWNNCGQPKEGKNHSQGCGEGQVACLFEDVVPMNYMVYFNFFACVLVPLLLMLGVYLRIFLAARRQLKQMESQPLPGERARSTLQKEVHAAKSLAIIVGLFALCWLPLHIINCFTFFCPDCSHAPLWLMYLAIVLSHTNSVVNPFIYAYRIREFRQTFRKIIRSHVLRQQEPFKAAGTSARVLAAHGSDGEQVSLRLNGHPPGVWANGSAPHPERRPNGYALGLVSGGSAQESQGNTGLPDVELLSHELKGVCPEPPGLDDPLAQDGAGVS
Description for hA2a/CHO: (§1) hA2a/CHO, hA2b/CHO, hA3/CHO and mA2a/CHO (Genscript) were plated at 5×10^3 cells/well into 384-well polystyrene plates at the day of experiment. Compounds were pre-incubated with cells for 30 min at 37° C., 5% CO2. Then 10 μM adenosine was added to the cells and incubated for 30 min at 37° C., 5% CO2. Detection reagent (CISBIO) was added and the plates were incubated for 60 min at room temperature. The signal was captured by Envision.
Description for hA2b/CHO: as §1
Description for mA2a/CHO: as §1

As to `CN(C)CCOc1cccnc1CNC(=O)c1nc(-c2ccc3ncn(C)c3c2)c(-c2ccc(F)cc2)nc1N` [Example 116, 3-amino-N-([3-[2-(dimethylamino)ethoxy]pyridin-2-yl]methyl)-5-(4-fluorophenyl)-6-(1-methyl-1H-1,3-benzodiazol-6-yl)pyrazine-2-carboxamide], the IC50 in test [1] (cAMP & FLIPR IC50 (nM) hA1, FLIPR inhibition) amounted to 61 nM; against mA2a/CHO (cAMP & FLIPR IC50 (nM) mA2a), 17 nM; on hA2b/CHO (cAMP & FLIPR IC50 (nM) hA2b), 6020 nM; against hA2a/CHO (cAMP & FLIPR IC50 (nM) hA2a), 9.6 nM.

Consider `Cn1cnc2ccc(-c3nc(C(=O)NCc4ncccc4NCCO)c(N)nc3-c3ccc(F)cc3)cc21` [Example 117, 3-amino-5-(4-fluorophenyl)-N-([3-[(2-hydroxyethyl)amino]pyridin-2-yl]methyl)-6-(1-methyl-1H-1,3-benzodiazol-6-yl)pyrazine-2-carboxamide], for which the IC50 is 64 nM in test [1] (setting [2]), 2.6 nM at mA2a/CHO (setting [3]), 146 nM on hA2b/CHO (setting [4]) and 0.7 nM at hA2a/CHO (setting [5]).

Consider `Cc1cnc2ccc(-c3nc(C(=O)NCc4cnccc4N(C)C)c(N)nc3-c3ncco3)cn12` [Example 118, 3-amino-N-((4-(dimethylamino)pyridin-3-yl)methyl)-6-(3-methylimidazo[1,2-a]pyridin-6-yl)-5-(oxazol-2-yl)pyrazine-2-carboxamide], for which the IC50 in test [1] (setting [2]) stood at 35 nM; at mA2a/CHO (setting [3]), 1.7 nM; on hA2b/CHO (setting [4]), 6.8 nM; at hA2a/CHO (setting [5]), 3.1 nM.

In the case of `Cn1cnc2ccc(-c3nc(C(=O)NCc4ncccc4OCC(N)=O)c(N)nc3-c3ccc(F)cc3)cc21` [Example 119, 3-amino-N-[[3-(carbamoylmethoxy)pyridin-2-yl]methyl]-5-(4-fluorophenyl)-6-(1-methyl-1H-1,3-benzodiazol-6-yl)pyrazine-2-carboxamide], the IC50 came out at 41 nM in test [1] (setting [2]), 4.7 nM at mA2a/CHO (setting [3]), 31 nM on hA2b/CHO (setting [4]) and 1.1 nM at hA2a/CHO (setting [5]).

Consider `Cc1cnc2ccc(-c3nc(C(=O)NC[C@H]4CCCN4)c(N)nc3-c3ncco3)cn12` [Example 122, (R)-3-amino-6-(3-methylimidazo[1,2-a]pyridin-6-yl)-5-(oxazol-2-yl)-N-(pyrrolidin-2-ylmethyl)pyrazine-2-carboxamide], for which the IC50 was 10000 nM in test [1] (setting [2]), 126 nM at mA2a/CHO (setting [3]), 887 nM at hA2b/CHO (setting [4]) and 34 nM at hA2a/CHO (setting [5]).

Take `Cc1cnc2ccc(-c3nc(C(=O)NC[C@@H]4CCCN4)c(N)nc3-c3ncco3)cn12` [Example 123, (S)-3-amino-6-(3-methylimidazo[1,2-a]pyridin-6-yl)-5-(oxazol-2-yl)-N-(pyrrolidin-2-ylmethyl)pyrazine-2-carboxamide]: the IC50 in test [1] (setting [2]) came to 10000 nM; at mA2a/CHO (setting [3]) it was 153 nM; on hA2b/CHO (setting [4]) it was 1310 nM; on hA2a/CHO (setting [5]) it was 56 nM.

Turning to `CCc1cnn2ccc(-c3nc(C(=O)NC[C@H]4CCCN4C)c(N)nc3-c3ncco3)cc12` [Example 128, (R)-3-amino-6-(3-ethylpyrazolo[1,5-a]pyridin-5-yl)-N-((1-methylpyrrolidin-2-yl)methyl)-5-(oxazol-2-yl)pyrazine-2-carboxamide], the IC50 is 10000 nM in test [1] (setting [2]), 410 nM on mA2a/CHO (setting [3]), at least 10000 nM at hA2b/CHO (setting [4]) and 63 nM on hA2a/CHO (setting [5]).

In the case of `CCc1cnn2ccc(-c3nc(C(=O)NC[C@@H]4CCCN4C)c(N)nc3-c3ncco3)cc12` [Example 129, (S)-3-amino-6-(3-ethylpyrazolo[1,5-a]pyridin-5-yl)-N-((1-methylpyrrolidin-2-yl)methyl)-5-(oxazol-2-yl)pyrazine-2-carboxamide], the IC50 in test [1] (setting [2]) was 10000 nM; on mA2a/CHO (setting [3]) it was 944 nM; at hA2b/CHO (setting [4]), at least 10000 nM; on hA2a/CHO (setting [5]), 140 nM.

Turning to `CN1CCC[C@H]1CNC(=O)c1nc(-c2ccc3ncn(C)c3c2)c(-n2nccn2)nc1N` [Example 130, 3-amino-6-(1-methyl-1H-1,3-benzodiazol-6-yl)-N-[[(2S)-1-methylpyrrolidin-2-yl]methyl]-5-(2H-1,2,3-triazol-2-yl)pyrazine-2-carboxamide], the IC50 in test [1] (setting [2]) was 10000 nM; on mA2a/CHO (setting [3]), 2800 nM; at hA2b/CHO (setting [4]), at least 10000 nM; on hA2a/CHO (setting [5]) it was 295 nM.

For `CN1CCC[C@@H]1CNC(=O)c1nc(-c2ccc3ncn(C)c3c2)c(-n2nccn2)nc1N` [Example 131, (R)-3-amino-6-(1-methyl-1H-benzo[d]imidazol-6-yl)-N-((1-methylpyrrolidin-2-yl)methyl)-5-(2H-1,2,3-triazol-2-yl)pyrazine-2-carboxamide], the concentration for half-maximal inhibition (IC50) in test [1] (setting [2]) is 10000 nM; on mA2a/CHO (setting [3]) it was 2700 nM; on hA2b/CHO (setting [4]), at least 10000 nM; on hA2a/CHO (setting [5]), 332 nM.

For the compound `CCNC(=O)c1nc(-c2ccc3ncc(C)n3c2)c(-c2ncco2)nc1N` [Example 132, 3-amino-N-ethyl-6-(3-methylimidazo [1,2-a]pyridin-6-yl)-5-(oxazol-2-yl) pyrazine-2-carboxamide], the IC50 amounted to 10000 nM in test [1] (setting [2]), 65 nM at mA2a/CHO (setting [3]), 258 nM at hA2b/CHO (setting [4]) and 13 nM on hA2a/CHO (setting [5]).

On to `Cc1cnc2ccc(-c3nc(C(=O)NCCC#N)c(N)nc3-c3ncco3)cn12` [Example 142, 3-amino-N-(2-cyanoethyl)-6-(3-methyl-imidazo[1,2-a]pyridin-6-yl)-5-(oxazol-2-yl)pyrazine-2-carboxamide], for which the IC50 in test [1] (setting [2]) worked out at 10000 nM; on mA2a/CHO (setting [3]) it was 73 nM; on hA2b/CHO (setting [4]), 319 nM; on hA2a/CHO (setting [5]) it was 10 nM.

Regarding `Cc1cnc2ccc(-c3nc(C(=O)NCCC(=O)N(C)C)c(N)nc3-c3ncco3)cn12` [Example 143, 3-amino-N-(3-(dimethylamino)-3-oxopropyl)-6-(3-methylimidazo[1,2-a]pyridin-6-yl)-5-(oxazol-2-yl)pyrazine-2-carboxamide], the IC50 in test [1] (setting [2]) was 180 nM; on mA2a/CHO (setting [3]), 12 nM; at hA2b/CHO (setting [4]), 162 nM; at hA2a/CHO (setting [5]), 1.7 nM.

In the case of `Cc1cnc2ccc(-c3nc(C(=O)N[C@@H]4CCN(C)C4)c(N)nc3-c3ccc(F)cc3)cn12` [Example 144, (R)-3-amino-5-(4-fluorophenyl)-6-(3-methylimidazo[1,2-a]pyridin-6-yl)-N-(1-methylpyrrolidin-3-yl)pyrazine-2-carboxamide], the IC50 amounted to 10000 nM in test [1] (setting [2]), 61 nM on mA2a/CHO (setting [3]), 1410 nM on hA2b/CHO (setting [4]) and 4.6 nM on hA2a/CHO (setting [5]).

As to `Cc1cnc2ccc(-c3nc(C(=O)NC[C@@H](C)O)c(N)nc3-c3ncco3)cn12` [Example 145, (R)-3-amino-N-(2-hydroxypropyl)-6-(3-methylimidazo[1,2-a]pyridin-6-yl)-5-(oxazol-2-yl)pyrazine-2-carboxamide], the IC50 in test [1] (setting [2]) worked out at 10000 nM; at mA2a/CHO (setting [3]) it was 205 nM; on hA2b/CHO (setting [4]) it was 789 nM; on hA2a/CHO (setting [5]) it was 32 nM.

Take `Cc1cnc2ccc(-c3nc(C(=O)NC[C@H](C)O)c(N)nc3-c3ncco3)cn12` [Example 146, (S)-3-amino-N-(2-hydroxypropyl)-6-(3-methylimidazo[1,2-a]pyridin-6-yl)-5-(oxazol-2-yl)pyrazine-2-carboxamide]: the IC50 in test [1] (setting [2]) was determined as 10000 nM; at mA2a/CHO (setting [3]), 101 nM; at hA2b/CHO (setting [4]), 256 nM; on hA2a/CHO (setting [5]) it was 8.5 nM.

In the case of `Cc1cnc2ccc(-c3nc(C(=O)NCCOC(F)(F)F)c(N)nc3-c3ncco3)cn12` [Example 148, 3-amino-6-(3-methylimidazo[1,2-a]pyridin-6-yl)-5-(oxazol-2-yl)-N-(2-(trifluoromethoxy)ethyl)pyrazine-2-carboxamide], the IC50 is 69 nM in test [1] (setting [2]), 1.1 nM at mA2a/CHO (setting [3]), 99 nM on hA2b/CHO (setting [4]) and 0.5 nM on hA2a/CHO (setting [5]).

With `COCCCNC(=O)c1nc(-c2ccc3ncc(C)n3c2)c(-c2ncco2)nc1N` [Example 149, 3-amino-N-(3-methoxypropyl)-6-[3-methylimidazo[1,2-a]pyridin-6-yl]-5-(1,3-oxazol-2-yl)pyrazine-2-carboxamide], the IC50 in test [1] (setting [2]) turned out to be 1560 nM; on mA2a/CHO (setting [3]), 7.8 nM; at hA2b/CHO (setting [4]) it was 85 nM; on hA2a/CHO (setting [5]) it was 1.5 nM.

In the case of `Cc1cnc2ccc(-c3nc(C(=O)NCCS(C)(=O)=O)c(N)nc3-c3ccc(F)cc3)cn12` [Example 150, 3-amino-5-(4-fluorophenyl)-6-(3-methylimidazo[1,2-a]pyridin-6-yl)-N-(2-(methylsulfonyl)ethyl)pyrazine-2-carboxamide], the IC50 in test [1] (setting [2]) worked out at 26 nM; on mA2a/CHO (setting [3]), 6.5 nM; on hA2b/CHO (setting [4]), 108 nM; at hA2a/CHO (setting [5]), 3.4 nM.

Consider `CO[C@H]1C[C@H](NC(=O)c2nc(-c3ccc4ncc(C)n4c3)c(-c3ncco3)nc2N)C1` [Example 151, 3-amino-N-((1r,3r)-3-methoxycyclobutyl)-6-(3-methylimidazo [1,2-a]pyridin-6-yl)-5-(oxazol-2-yl) pyrazine-2-carboxamide], for which the IC50 in test [1] (setting [2]) was 10000 nM; on mA2a/CHO (setting [3]), 12 nM; at hA2b/CHO (setting [4]) it was 193 nM; on hA2a/CHO (setting [5]) it was 0.8 nM.

Turning to `CO[C@H]1C[C@@H](NC(=O)c2nc(-c3ccc4ncc(C)n4c3)c(-c3ncco3)nc2N)C1` [Example 152, 3-amino-N-((1s,3s)-3-methoxycyclobutyl)-6-(3-methylimidazo [1,2-a]pyridin-6-yl)-5-(oxazol-2-yl)pyrazine-2-carboxamide], the IC50 in test [1] (setting [2]) came to 10000 nM; at mA2a/CHO (setting [3]), 43 nM; at hA2b/CHO (setting [4]), 369 nM; at hA2a/CHO (setting [5]), 5.1 nM.
